Numbers after ± are expanded uncertainties.
Details: Crystal; visual observation

With `COc1ccc2cc([C@H](C)C(=O)O)ccc2c1` [(S)-(+)-naproxen] as the compound, how does the Normal melting temperature read?
The Normal melting temperature was 155 ± 1.1 °C.

Source: the NIST ThermoML archive (doi:10.1021/je8008039)
